One compound from US20250032624A1, “SMALL MOLECULE DEGRADATION METHODS FOR TREATING ALS/FTD” (University of Florida Research Foundation, Incorporated, priority 2021, published 2025) can be followed below.

The subject of assay [1] is RAN translation, poly(GP). The assay can be described thus: poly(GP) abundance by electroluminescent sandwich immunoassay in c9ALS/FTD patient-derived LCLs. The assay is classed as cell-based, human. The note with it: 500 nM. The method, then:
Meso Scale Discovery (MSD) Technology utilizes electrochemiluminescence to detect biomarkers, such as poly(GP), in protein samples. All cells were seeded in 6-well plates. LCLs were seeded in 2 mL of RPMI at 1×10^6 cells/mL and treated with compound for 4 days without media changes; patient-derived iPSCs were seeded at ˜80% confluency and treated as described above; patient-derived iPSNs began compound treatment on Day 15 of the differentiation process as previously described. Compounds were diluted to 0.1% DMSO final concentration in medium. […] Protein samples were quantified using a Pierce™ Micro BCA Protein Assay Kit (Thermo Scientific).
Poly(GP) levels were measured by an electrochemical luminescent sandwich immunoassay. […]
Following incubation wells were washed three times in 1×TBST (Tris-buffered saline containing 0.1% (v/v) Tween-20) and blocked with a 3% (w/v) BSA solution in 1×TBST for 1 hour with shaking at room temperature. […] After incubation, the wells were washed three times with 1×TBST and 150 μL of 1×MSD GOLD Read Buffer (MSD Technology) was applied to the wells immediately before reading the plate. The plate was read using a SECTOR Imager (MSD Technology).

Assay [2] deals with C9orf72 and transcriptome. The assay can be described thus: RNA-seq in iPSCs from healthy donors. It counts as cell-based, human. The note with it: healthy donor iPSCs. The method, then: Total RNA integrity was confirmed by Agilent 2100 Bioanalyzer RNA nano chip, and the quantity was measured by Qubit 2.0 Fluorometer (Invitrogen). The library preparation was performed using NEBNext Ultra II Directional RNA kit (NEB, E7760) in combination with NEBNext rRNA depletion module (NEB, E6310) and RNA fragmentation module (NEB, E6150S), following manufacturer's recommendations. Briefly, a total of 200 ng RNA was first processed with depleted of ribosomal RNA, and then randomly fragmented to achieve range between 150 to 300 nucleotides. The fragmented RNAs were random primed for the first-strand synthesis, and the second strand was synthesized with dUTPs. The strand information is thus preserved by using USER enzyme (Uracil-specific excision reagent). The cDNA was PCR amplified and pooled equimolar to load onto the NextSeq 500 v2.5 flow cell and sequenced with 2×40 bp paired-end method. The output fastq files were aligned using STAR 3^5. The read counts of specific regions were extracted using samtools.^36 The global differential gene expression analysis was performed using featureCounts and Deseq2.^37,38

Assay [3] deals with C9orf72 transcript degradation (RNase L, hRRP6, XRN1, XRN2). The assay can be described thus: siRNA knock-down co-treatment experiments in c9ALS/FTD iPSCs (RT-qPCR). The assay is classed as cell-based, human. How it is done: iPSCs were cultured as described in the “Cell Culture,” section. Briefly, iPSCs were plated into 6-well Matrigel coated plates and treated with compound and siRNA for four days. On day one, fresh media was added to the cells and siRNAs were transfected using Lipofectamine RNAiMax (Life Technologies), following the manufacturer's protocol. Cells were incubated for 1 hour at 37° C. and then compound was added to a final concentration of 50 nM (DMSO 0.1% (v/v)). Cells were incubated for 48 h, then media was replaced and the siRNA re-transfected. Following a 1 hour incubation, cells were treated with compound and then incubated for another 48 hours. After a total of 96 hours of treatment, RNA was extracted and RT-qPCR was performed following the protocol outline in the “Measuring Levels of C9orf72 and C9orf72 Variants by RT-qPCR,” section.

The next assay deals with poly(GP). The assay can be described thus: poly(GP) and β-actin by electrochemiluminescence assay in brain of +/+PWR500 mice. The assay is classed as in vivo, mouse. The method, then: A total of 20 age- and gender-matched mice (12 +/+PWR500 [5 Male and 7 Female] and 8 WT [4 Male and 4 Female]), ranging from 18-21 weeks old were used in therapeutic efficacy studies (Table 4). Mice were treated with a single bolus injection of 33 nmol of compound 2 formulated in 1% (v/v) DMSO/99% water, administered by an intracerebroventricular injection (ICV). Three weeks post injection, mice were euthanized, and tissue was harvested for study.
Postmortem brain tissue was harvested and sliced along the sagittal plane at the midline. The left hemisphere was frozen for RNA and protein analysis. Frozen brain tissue was homogenized in 300 μL Tris-EDTA buffer with a 1:5 w/v ratio of 2× protease and phosphatase inhibitors, as was done for RNA analysis of the tissue. Half of the homogenized tissue (150 μL) was mixed with 2× Lysis Buffer (50 mM Tris, pH 7.4, 250 mM NaCl, 2% (v/v) Triton X-100, and 4% (w/v) SDS) and sonicated at 1 second on/off intervals at 30% for a total of 15 seconds. Detergent from was removed using a Pierce™ Detergent Removal Spin Column 0.5 mL (Thermo Scientific) according to the manufacturer's protocol. Protein concentrations were then measured by BCA assay (Pierce Biotechnology) and poly(GP) was measured as described above for the electrochemical luminescent sandwich immunoassay.

Where [4] appears, read: 20 nM hRRP6-targeting siRNA, 50 nM compound.

As for `CCOC(=O)C1=C(Nc2ccccc2)S/C(=C\c2ccc(OCCOCCOCCOCCNC(=O)CCCOc3ccc4c(c3)c3cc5c(C(=O)N[C@H](C)CN(C)C)nccc5c(C)c3n4C)c(O)c2)C1=O` [ALS Compound Formula I], the “reduction of poly(GP) abundance” value in assay [1] is recorded as around 50%. Moreover, in assay [2], the C9orf72 read count result is recorded as “no effect”, the “intron 1:exon 2 ratio” value was “no effect” and the off-target effects transcriptome-wide entry is listed as “minimal off-target effects”. Further, in assay [3] (20 nM RNase L-targeting siRNA, 50 nM compound), the “intron 1 and exon 2-3 degradation under RNase L knock-down” value is “ablation of both intron 1 and exon 2-3 degradation”. In addition, the “intron 1 decay and C9orf72 cleavage under XRN1 knock-down” value in assay [3] (20 nM XRN1-targeting siRNA, 50 nM compound) is “ablation of intron 1 decay and C9orf72 cleavage”. In addition, in assay [3] (20 nM XRN2-targeting siRNA, 50 nM compound), the “intron 1 decay and C9orf72 cleavage under XRN2 knock-down” value is listed as “no effect on either”. In assay [3] (setting [4]), the “exon 2-3 cleavage under hRRP6 knock-down” value is reported as “no effect” and the “intron 1 decay under hRRP6 knock-down” value is “ablation of intron 1 decay”. In assay [3] (both siRNAs, compound co-treatment), the “degradation of the transcript under RNase L and hRRP6 knock-down together” value was “comparable to RNase L knock-down alone”. Further, the β-actin abundance result in the assay with poly(GP) (house-keeping protein) was “unaffected”. Also, the “reduction of poly(GP)” value in the assay on poly(GP) (single ICV injection, 3 weeks) was around 40%.
